Molecular target: Recombinant human PDK1 enzyme (aa 52-556) (Homo sapiens (Human), UniProt O15530)
Experiment: PDK1 kinase assay
Type: biochemical
Settings: in vitro kinase assay, His6-PDK1 (aa 52-556), PDKtide, P33-ATP
Procedure, shortened: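 Radiometric filter-binding read-out after H3PO4 stop. The reaction ran 90 min at RT, started with a 25 μM ATP/γ-33P-ATP solution, after 30 min RT preincubation of the compound series (10 μM top, 1:5 dilutions) with N-His6 PDK1 aa 52-556 (insect-cell expressed, 3.33 ng/well) and 25 μM final PDKtide.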

Recombinant human PDK1 enzyme (aa 52-556), sequence (O15530 52-556): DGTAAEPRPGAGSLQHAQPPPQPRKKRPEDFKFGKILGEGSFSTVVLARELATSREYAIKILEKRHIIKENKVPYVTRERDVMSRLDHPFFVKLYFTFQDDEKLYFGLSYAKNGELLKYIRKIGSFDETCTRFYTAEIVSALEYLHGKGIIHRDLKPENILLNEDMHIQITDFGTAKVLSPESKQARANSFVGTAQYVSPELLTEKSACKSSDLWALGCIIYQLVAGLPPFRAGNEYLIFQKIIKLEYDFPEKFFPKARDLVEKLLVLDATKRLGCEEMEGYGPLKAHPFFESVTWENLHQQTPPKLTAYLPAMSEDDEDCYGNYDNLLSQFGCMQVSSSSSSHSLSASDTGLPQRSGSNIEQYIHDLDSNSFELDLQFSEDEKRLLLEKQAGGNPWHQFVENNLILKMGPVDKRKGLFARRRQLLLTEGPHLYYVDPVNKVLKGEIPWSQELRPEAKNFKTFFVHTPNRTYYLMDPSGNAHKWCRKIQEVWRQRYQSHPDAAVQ

Structure (SMILES) | IC50 [nM]
CN1CCC(Oc2ccnc3ccc(C#CCNC(=O)c4cncn(Cc5ccc(F)c(F)c5)c4=O)cc23)C1 (stereo not drawn) [I-106] | 119
O=C(NCC#Cc1ccc2ncc(-c3ccccc3)cc2c1)c1cncn(Cc2ccc(F)c(F)c2)c1=O [I-81] | 66
CN(C)c1c(C#N)cnc2ccc(C#CCNC(=O)c3cccn(Cc4ccc(F)c(F)c4)c3=O)cc12 [II-94] | 27
CCN1CCC(Nc2cnc3ccc(C#CCNC(=O)c4cccn(Cc5ccc(F)c(F)c5)c4=O)cc3n2)CC1 [I-46] | 7
CN(C)c1cnc2ccc(C#CCNC(=O)c3cncn(Cc4ccc(F)c(F)c4)c3=O)cc2n1 [I-15] | 68
CNc1ncnc2ccc(C#CCNC(=O)c3cccn(Cc4ccsc4)c3=O)cc12 [II-26] | 199
CN(C)CCSc1cnc2ccc(C#CCNC(=O)c3cncn(Cc4ccc(F)c(F)c4)c3=O)cc2n1 [I-18] | 17
CCOc1ccnc2ccc(C#CCNC(=O)c3cncn(Cc4ccc(F)c(F)c4)c3=O)cc12 [I-95] | 33
CN(C)CCCNc1ccnc2ccc(C#CCNC(=O)c3cccn(Cc4ccc(F)c(F)c4)c3=O)cc12 [I-120] | 656
O=C(NCC#Cc1ccc2ncc(NC3CCCCC3)nc2c1)c1cncn(Cc2ccc(F)c(F)c2)c1=O [I-26] | 588
CN1CCC(N(C)c2cnc3ccc(C#CCNC(=O)c4cncn(Cc5ccc(F)c(F)c5)c4=O)cc3n2)CC1 [I-28] | 21
CNc1ncnc2cc(F)c(C#CCNC(=O)c3c(C)n(C)n(Cc4ccc(F)c(F)c4)c3=O)cc12 [I-6] | 68
CN1CCN(Nc2cnc3ccc(C#CCNC(=O)c4cncn(Cc5ccc(F)c(F)c5)c4=O)cc3n2)CC1 [I-36] | 87
CN(C)CCNc1cnc2ccc(C#CCNC(=O)c3cncn(Cc4ccc(F)c(F)c4)c3=O)cc2n1 [I-12] | 35
CN(C)C(=O)CNc1ncnc2ccc(C#CCNC(=O)c3cccn(Cc4ccc(F)c(F)c4)c3=O)cc12 [II-50] | 182
CN(C)CC(C)(C)COc1ccnc2ccc(C#CCNC(=O)c3cccn(Cc4ccc(F)c(F)c4)c3=O)cc12 [I-103] | 33
CN1CCCC(COc2ccnc3ccc(C#CCNC(=O)c4cccn(Cc5ccc(F)c(F)c5)c4=O)cc23)C1 (stereo not drawn) [I-101] | 5
CN(C)c1ncnc2ccc(C#CCNC(=O)c3cccn(Cc4cc[nH]n4)c3=O)cc12 [II-42] | 697

Structure (SMILES) | IC50 [nM]
CN1CCC[C@@H](COc2ccnc3ccc(C#CCNC(=O)c4cccn(Cc5cc(F)c(F)c(F)c5)c4=O)cc23)C1 [I-125.17] | 2
CN(C)CCCOc1ncnc2ccc(C#CCNC(=O)c3cncn(Cc4ccc(F)c(F)c4)c3=O)cc12 [I-8] | 103
O=C(NCC#Cc1ccc2nccc(OCC3CCCOC3)c2c1)c1cccn(Cc2ccc(F)c(F)c2)c1=O (stereo not drawn) [I-125.8] | 46
O=C(NCC#Cc1ccc2ncc(NC3CC(N4CCCC4)C3)nc2c1)c1cncn(Cc2ccc(F)c(F)c2)c1=O (stereo not drawn) [I-29] | 41
CC(C)=Cc1cnc2ccc(C#CCNC(=O)c3cncn(Cc4ccc(F)c(F)c4)c3=O)cc2n1 [I-68] | 233
COc1ncnc2ccc(C#CCNC(=O)c3cncn(Cc4ccc(F)c(F)c4)c3=O)cc12 [I-2] | 37
C[C@H](c1ccc(F)c(F)c1)n1cccc(C(=O)NCC#Cc2ccc3ncc(NC4CCN(C)CC4)nc3c2)c1=O [I-30] | 2
O=C(NCC#Cc1ccc2ncc(NC3CCN(C4COC4)CC3)nc2c1)c1cccn(Cc2ccc(F)c(F)c2)c1=O [I-57] | 9
Cc1c(C#CCNC(=O)c2cncn(Cc3ccc(F)c(F)c3)c2=O)ccc2ncc(-c3ccccc3)cc12 [I-79] | 80
COCCN1CCC(Nc2cnc3ccc(C#CCNC(=O)c4cncn(Cc5ccc(F)c(F)c5)c4=O)cc3n2)CC1 [I-37] | 5
CCOc1ccnc2ccc(C#CCNC(=O)c3cccn(Cc4ccc(F)c(F)c4)c3=O)cc12 [I-94] | 55
CCOc1ccnc2ccc(C#CCNC(=O)c3cccn(C(CO)c4ccc(F)c(F)c4)c3=O)cc12 (stereo not drawn) [I-125.15] | 11
COCCN1CCC(Nc2cnc3ccc(C#CCNC(=O)c4cccn(Cc5ccc(F)c(F)c5)c4=O)cc3n2)CC1 [I-49] | 9
C=C(C)c1cnc2ccc(C#CCNC(=O)c3cncn(Cc4ccc(F)c(F)c4)c3=O)cc2n1 [I-69] | 64
CN(C)CCCOc1ccnc2ccc(C#CCNC(=O)c3cncn(Cc4ccc(F)c(F)c4)c3=O)cc12 [I-88] | 15
CN1CCC(CNc2ncnc3ccc(C#CCNC(=O)c4cccn(Cc5ccc(F)c(F)c5)c4=O)cc23)C1 (stereo not drawn) [II-38] | 97
CN1CCCC(Nc2cnc3ccc(C#CCNC(=O)c4cncn(Cc5ccc(F)c(F)c5)c4=O)cc3n2)C1 (stereo not drawn) [I-21] | 149
O=C(NCC#Cc1ccc2ncc(N[C@H]3CC[C@H](O)CC3)nc2c1)c1cncn(Cc2ccc(F)c(F)c2)c1=O [I-39] | 21

Now from value to molecule:

IC50 [nM] | Structure (SMILES)
8 | CCN(CC)c1ncnc2ccc(C#CCNC(=O)c3cc(Cl)nn(Cc4ccc(F)c(F)c4)c3=O)cc12 [II-43]
218 | O=C(CNc1ncnc2ccc(C#CCNC(=O)c3cncn(Cc4ccc(F)c(F)c4)c3=O)cc12)c1ccccc1 [II-16]
86 | CCNc1c([N+](=O)[O-])cnc2ccc(C#CCNC(=O)c3cncn(Cc4ccc(F)c(F)c4)c3=O)cc12 [I-126]
16 | CON(C)c1ncnc2ccc(C#CCNC(=O)c3cncn(Cc4ccc(F)c(F)c4)c3=O)cc12 [II-62]
98 | O=C(NCC#Cc1ccc2ncnc(NCCc3ccco3)c2c1)c1cncn(Cc2ccc(F)c(F)c2)c1=O [II-6]
126 | CC1CN(C)CCC1Nc1ncnc2ccc(C#CCNC(=O)c3cncn(Cc4ccc(F)c(F)c4)c3=O)cc12 (stereo not drawn) [II-25]
414 | CN(CCc1ccccc1)c1c(C#N)cnc2ccc(C#CCNC(=O)c3cccn(Cc4ccc(F)c(F)c4)c3=O)cc12 [II-106]
171 | CN1CC(Nc2ncnc3ccc(C#CCNC(=O)c4cncn(Cc5ccc(F)c(F)c5)c4=O)cc23)C1 [II-2]
17 | C[C@@H](c1cc(F)c(F)c(F)c1)n1cccc(C(=O)NCC#Cc2ccc3nccc(OC[C@@H]4CCCN(CCN5CCOCC5)C4)c3c2)c1=O [I-125.20]
184 | O=C(NCC#Cc1ccc2ncnc(NCC(O)c3ccccc3)c2c1)c1cncn(Cc2ccc(F)c(F)c2)c1=O (stereo not drawn) [II-13]
515 | O=C(NCC#Cc1ccc2ncnc(NC3CCOCC3)c2c1)c1cncn(Cc2ccc(F)c(F)c2)c1=O [II-21]
134 | CN(CCc1ccccc1)c1ncnc2ccc(C#CCNC(=O)c3cncn(Cc4ccc(F)c(F)c4)c3=O)cc12 [II-3]
683 | CN(CC1CCCCC1)c1c(C#N)cnc2ccc(C#CCNC(=O)c3cccn(Cc4ccc(F)c(F)c4)c3=O)cc12 [II-99]
443 | O=C(NCC#Cc1ccc2ncnc(N3CCNCC3)c2c1)c1cncn(Cc2ccc(F)c(F)c2)c1=O [II-9]
445 | CC(CNc1ncnc2ccc(C#CCNC(=O)c3cncn(Cc4ccc(F)c(F)c4)c3=O)cc12)c1ccccc1 (stereo not drawn) [II-15]
40 | CN(Cc1cnn(-c2ccc(F)cc2)c1)c1ncnc2ccc(C#CCNC(=O)c3cccn(Cc4ccc(F)c(F)c4)c3=O)cc12 [II-44]
3 | CC(C)N1CCC[C@@H](COc2ccnc3ccc(C#CCNC(=O)c4cccn(Cc5ccc(F)c(F)c5)c4=O)cc23)C1 [I-125.22]
10 | CNc1ncnc2ccc(C#CCNC(=O)c3cc(Cl)nn(Cc4ccc(F)c(F)c4)c3=O)cc12 [II-58]
